Results taken from patent EP4660190A1, “PHARMACEUTICALLY ACCEPTABLE SALT OF COMPOUND AND PREPARATION METHOD THEREFOR” (Jiangsu Chia Tai Fenghai Pharmaceutical Co., Ltd., priority 2023, dated 2024).
Read-outs that look alike come from different tables or passages of the source.

What was measured:
[1] = test system: TDP-43-A315T transgenic mice of ALS model; assay: TDP-43-A315T ALS mice, rotarod test; format: in vivo; settings: Mean±SEM
[2] = test system: MPTP-induced Parkinson's disease model mice; assay: MPTP-induced mouse Parkinson's disease model, TH-positive fiber content in the striatum; format: in vivo, C57 mice; settings: four weeks, mean ± SD
[3] = test system: MPTP-induced Parkinson's disease model mice; assay: MPTP-induced mouse Parkinson's disease model, TH-positive cell counts in the substantia nigra pars compacta; format: in vivo, C57 mice; settings: four weeks, mean ± SD
[4] = test system: rat spinal cord injury model; assay: Rat spinal cord injury model, Neurofilament 200 (NF200) expression; format: in vivo, Male SD rats; settings: mean±SD, n=6
[5] = test system: rat spinal cord injury model; assay: Rat spinal cord injury model, pathological changes
[6] = Pharmacokinetic test in rats; format: in vivo, Male SD rats; settings: rat; p.o. 10 mg/kg vs i.v. 1 mg/kg
Experimental: Male SD rats (weighing 180-260g) were administered with the compound of formula (I) intravenously at a dose of 1.0 mg/kg via tail vein injection, and orally at a dose of 10.0 mg/kg. Each group consisted of 3 animals. The solvent for administration was a solution of 5% DMSO + 5% polyethoxylated castor oil (Cremophor EL) in normal saline. The rats were fasted for about 12 h before administration and were given ad libitum access to food 4 h after administration, and water was available all the time. Blood was collected from the orbit at about 0.2 mL before administration and 5 min, 15 min, 30 min, 1 h, 2 h, 4 h, 6 h, 8 h, and 24 h after administration. The samples were placed in EDTA-K2 anticoagulant EP tubes in an ice bath, and subjected to low-speed centrifugation at 4°C and 3500 rpm for 10 min to isolate plasma, which was then stored at -20°C before analysis. The plasma concentration of the compound of formula (I) was determined using liquid chromatography-tandem mass spectrometry (LC-MS/MS). Pharmacokinetic parameters were calculated from the analysis results of the samples using WinNonlin software.

[7] = test system: Middle cerebral artery occlusion (MCAO) models of SD rats; assay: Rat MCAO model, single-dose administration, TTC staining infarct size; format: in vivo; settings: 24 h; for Infarct Size (%): Mean±SD
Experimental: 3: Pharmacodynamic study in Rat Middle Cerebral Artery Occlusion (MCAO) Model (Single-Dose Administration) Middle cerebral artery occlusion (MCAO) models of SD rats were constructed using the suture occlusion method to evaluate the protection effect of the compound on neurons of rats after cerebral ischemia-reperfusion. After anaesthesia induction with 3.0% isoflurane in SD rats (240-270g), the operation was performed, and the right-side neck area was dissected to reveal the right common carotid artery (CCA), external carotid artery (ECA) and internal carotid artery (ICA). The ECA was ligated. The ICA was temporarily occluded. Sutures were threaded at both the proximal end and the distal end of CCA. The distal end was securely ligated, and a loosely tied knot was placed at the proximal end. A small incision was made between the two ligatures on the CCA. A No. 4-0 suture was inserted through the incision of CCA and slowly and gently pushed into the ICA. The threading was halted temporarily when reaching the artery clamp of ICA. The pre-ligation suture was further tightened. The artery clamp blocking the blood flow in the ICA was removed, allowing the suture occlusion to be advanced into the ICA until it entered the intracranial region. […] The insertion was stopped at the moment, and the time was recorded. The artery clamp on the CCA was removed and the incision was closed after no active bleeding was observed. The ischemic rats were placed at room temperature to keep their body temperature at 37°C, and anesthesia induction could be carried out 120min later. The suture was slowly and gradually withdrawn when the rats were maintained under anesthesia, so that the proximal end of the suture returned to the ECA, thereby initiating reperfusion of the middle cerebral artery. Animals were administered for a single dose immediately after reperfusion (within 10min). 3 groups were established, namely a model control group, a Compound (I) i.v. group (30mg/kg), and a Compound (I) p.o. group (60mg/kg). Animals were euthanized 24 h after ischemia reperfusion, and the brains were rapidly taken, frozen, and dissected for TTC staining. The normal tissues were rose-red after staining, and the infarcted tissues were white. The infarct size (%) percentage, calculated as the weight of infarcted tissues to the weight of the whole brain, is used to evaluate the degree of cerebral ischemic injury in rats.

[8] = rat, value in literature, cited from earlier work
[9] = high dose 20 mg/kg daily, listed as Tromethamine salt from Example 10, 20 mg/kg
[10] = high dose 20 mg/kg daily, listed as tromethamine salt from Example 10, 20 mg/kg
[11] = low dose 5 mg/kg daily, listed as Tromethamine salt from Example 10, 5 mg/kg
[12] = low dose 5 mg/kg daily, listed as tromethamine salt from Example 10, 5 mg/kg

(Z)-3-(1-hydroxybutenyl)benzofuran-2-one tromethamine salt [Example 10]
Rotarod performance ([1]; female mice, 20mg/kg, Dosing Schedule (weeks) 2): 287.0 ± 8.449 s | Rotarod performance ([1]; female mice, 20mg/kg, Dosing Schedule (weeks) 4): 288.6 ± 7.796 s | Rotarod performance ([1]; female mice, 20mg/kg, Dosing Schedule (weeks) 6): 285.4 ± 6.626 s | Rotarod performance ([1]; female mice, 20mg/kg, Dosing Schedule (weeks) 8): 266.3 ± 14.55 s | Rotarod performance ([1]; female mice, 20mg/kg, Dosing Schedule (weeks) 10): 254.2 ± 12.62 s | Rotarod performance ([1]; female mice, 20mg/kg, Dosing Schedule (weeks) 12): 266.2 ± 14.94 s | Rotarod performance ([1]; female mice, 20mg/kg, Dosing Schedule (weeks) 14): 272.3 ± 10.62 s | Rotarod performance ([1]; female mice, 20mg/kg, Dosing Schedule (weeks) 16): 267.8 ± 16.51 s | Rotarod performance ([1]; female mice, 40mg/kg p.o., Dosing Schedule (weeks) 2): 273.6 ± 12.14 s | Rotarod performance ([1]; female mice, 40mg/kg p.o., Dosing Schedule (weeks) 4): 271.4 ± 10.22 s | Rotarod performance ([1]; female mice, 40mg/kg p.o., Dosing Schedule (weeks) 6): 269.5 ± 8.270 s | Rotarod performance ([1]; female mice, 40mg/kg p.o., Dosing Schedule (weeks) 8): 275.6 ± 9.651 s | Rotarod performance ([1]; female mice, 40mg/kg p.o., Dosing Schedule (weeks) 10): 260.6 ± 12.34 s | Rotarod performance ([1]; female mice, 40mg/kg p.o., Dosing Schedule (weeks) 12): 270.6 ± 9.446 s | Rotarod performance ([1]; female mice, 40mg/kg p.o., Dosing Schedule (weeks) 14): 256.3 ± 10.00 s | Rotarod performance ([1]; female mice, 40mg/kg p.o., Dosing Schedule (weeks) 16): 236.5 ± 15.50 s | Rotarod performance ([1]; male mice, 40mg/kg p.o., Dosing Schedule (weeks) 6): 272.9 ± 7.148 s | Rotarod performance ([1]; male mice, 40mg/kg p.o., Dosing Schedule (weeks) 8): 267.5 ± 9.357 s | Rotarod performance ([1]; male mice, 40mg/kg p.o., Dosing Schedule (weeks) 10): 275.8 ± 10.38 s | Rotarod performance ([1]; male mice, 40mg/kg p.o., Dosing Schedule (weeks) 11): 224.3 ± 26.08 s | Rotarod performance ([1]; male mice, 40mg/kg p.o., Dosing Schedule (weeks) 12): 182.1 ± 40.34 s | Rotarod performance ([1]; male mice, 40mg/kg p.o., Dosing Schedule (weeks) 13): 154.2 ± 30.27 s | Rotarod performance ([1]; male mice, 60mg/kg p.o., Dosing Schedule (weeks) 6): 295.6 ± 3.322 s | Rotarod performance ([1]; male mice, 60mg/kg p.o., Dosing Schedule (weeks) 8): 275.1 ± 11.91 s | Rotarod performance ([1]; male mice, 60mg/kg p.o., Dosing Schedule (weeks) 10): 267.3 ± 10.94 s | Rotarod performance ([1]; male mice, 60mg/kg p.o., Dosing Schedule (weeks) 11): 263.0 ± 12.54 s | Rotarod performance ([1]; male mice, 60mg/kg p.o., Dosing Schedule (weeks) 12): 266.3 ± 17.99 s | Rotarod performance ([1]; male mice, 60mg/kg p.o., Dosing Schedule (weeks) 13): 209.0 ± 31.68 s | TH-Positive Fiber Content [2, 9]: 709627.56±100462.19^&# | TH-Positive Fiber Content [2, 10]: 709,627.56±100,462.19 | TH-Positive Fiber Content [2, 11]: 526554.39±169680.75^& | TH-Positive Fiber Content [2, 12]: 526,554.39±169,680.75 | TH-Positive Cell counts [3, 9]: 42.42±4.36^&# | TH-Positive Cell counts [3, 10]: 42.42±4.36 | TH-Positive Cell counts [3, 11]: 31.22±5.97^& | TH-Positive Cell counts [3, 12]: 31.22±5.97 | Positive Count (number per field of view) ([4]; high dose 20 mg/kg): 30.3±7.4 number per field of view | Positive Count (number per field of view) ([4]; low dose 5 mg/kg): 22.5± 7.5 number per field of view | cases showing a reduction in lesions ([5]; 20 mg/kg dose group, spinal cord histopathology): 4 out of 6 | pathological changes versus the model control group ([5]; low-dose group (5 mg/kg)): No significant differences

CCC/C(O)=C1/C(=O)Oc2ccccc21 [Compound (I)]
F [6]: 144.2% | Cerebral infarction inhibition rate (%) ([7]; i.v. 30mg/kg single dose after reperfusion): 37.1% | Infarct Size (%) ([7]; i.v. 30mg/kg single dose after reperfusion, 30 mg/kg): 13.61±3.66 % | Infarct Size (%) ([7]; i.v. 30mg/kg single dose after reperfusion, listed as compound (I), 30 mg/kg): 13.61±3.66% | Cerebral infarction inhibition rate (%) ([7]; p.o. 60mg/kg single dose after reperfusion): 31.2% | Infarct Size (%) ([7]; p.o. 60mg/kg single dose after reperfusion, 60 mg/kg): 14.88±5.11 % | Infarct Size (%) ([7]; p.o. 60mg/kg single dose after reperfusion, listed as compound (I), 60 mg/kg): 14.88±5.11%

CCCCC1OC(=O)c2ccccc21 (stereo not drawn) [Butylphthalide, butylphthalide, reference compound]
AUC0-inf ([8]; i.v. 10 mg/kg): 8620.0 ng·h/mL | AUC0-t ([8]; i.v. 10 mg/kg): 7230.0 ng·h/mL | MRTinf ([8]; i.v. 10 mg/kg): 2.4 h | T1/2 ([8]; i.v. 10 mg/kg): 2.2 h | AUC0-inf ([8]; p.o. 60 mg/kg): 8560.0 ng·h/mL | AUC0-t ([8]; p.o. 60 mg/kg): 7110.0 ng·h/mL | Cmax ([8]; p.o. 60 mg/kg): 2900.0 ng/mL | MRTinf ([8]; p.o. 60 mg/kg): 3.8 h | T1/2 ([8]; p.o. 60 mg/kg): 2.83 h | Tmax ([8]; p.o. 60 mg/kg): 0.7 h
